What all share (assay type): cell-based
In one assay the target is T1, human TLR7 (Homo sapiens, UniProt Q9NYK1).
T1 construct: host or cells: HEK-Blue cells
T1 sequence (Q9NYK1 27-1049): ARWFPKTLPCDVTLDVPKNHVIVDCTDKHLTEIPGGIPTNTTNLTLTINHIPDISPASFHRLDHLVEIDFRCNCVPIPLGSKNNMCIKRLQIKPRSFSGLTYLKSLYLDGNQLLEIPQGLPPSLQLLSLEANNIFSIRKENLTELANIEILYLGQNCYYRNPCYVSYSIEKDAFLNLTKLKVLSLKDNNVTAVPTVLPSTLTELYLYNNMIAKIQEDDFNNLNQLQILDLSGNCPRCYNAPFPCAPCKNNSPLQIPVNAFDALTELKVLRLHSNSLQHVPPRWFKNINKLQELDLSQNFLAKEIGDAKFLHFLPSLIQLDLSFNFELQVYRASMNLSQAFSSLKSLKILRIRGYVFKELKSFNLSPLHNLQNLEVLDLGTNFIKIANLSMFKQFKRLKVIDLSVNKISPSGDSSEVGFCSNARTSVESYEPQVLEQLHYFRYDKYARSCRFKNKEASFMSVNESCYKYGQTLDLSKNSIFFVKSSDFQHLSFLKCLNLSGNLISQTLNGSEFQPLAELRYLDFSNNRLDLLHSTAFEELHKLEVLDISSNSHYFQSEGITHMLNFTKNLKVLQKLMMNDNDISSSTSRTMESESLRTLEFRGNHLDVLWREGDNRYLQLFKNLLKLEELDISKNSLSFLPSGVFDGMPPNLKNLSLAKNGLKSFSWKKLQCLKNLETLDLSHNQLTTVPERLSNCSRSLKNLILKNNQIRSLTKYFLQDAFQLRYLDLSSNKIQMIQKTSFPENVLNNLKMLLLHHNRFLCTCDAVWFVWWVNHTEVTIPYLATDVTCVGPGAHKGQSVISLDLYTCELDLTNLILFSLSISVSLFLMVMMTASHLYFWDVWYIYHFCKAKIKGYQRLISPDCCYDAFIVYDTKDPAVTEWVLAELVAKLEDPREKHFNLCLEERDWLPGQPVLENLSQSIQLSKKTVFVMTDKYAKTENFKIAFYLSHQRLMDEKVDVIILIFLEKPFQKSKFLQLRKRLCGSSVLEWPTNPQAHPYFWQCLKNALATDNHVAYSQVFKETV
The assay is described as follows: TLR7 inhibition reporter assay (HEK-Blue SEAP reporter). As to conditions: HEK-Blue cells overexpressing human TLR7; gardiquimod 7.5 μM; 22 hour incubation. The method in brief: (§1)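 Agonists used: gardiquimod 7.5 μM (TLR7), R848 15.9 μM (TLR8), ODN2006 5 nM (TLR9), added after 30 min room-temperature compound pre-treatment (0.05 nM–50 μM) of receptor-overexpressing HEK-Blue cells. SEAP reporter (NF-κB/AP-1 driven) read after 22 h at 37 °C; inhibition scaled between agonist+DMSO and reference-inhibitor wells.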
(In general: Reporter assays use an easily measured gene product as a stand-in for the process of interest.)

The next assay concerns the target T2, human TLR8 (Homo sapiens, UniProt Q9NR97).
T2 construct: host or cells: HEK-Blue cells
T2 sequence (Q9NR97 27-1041): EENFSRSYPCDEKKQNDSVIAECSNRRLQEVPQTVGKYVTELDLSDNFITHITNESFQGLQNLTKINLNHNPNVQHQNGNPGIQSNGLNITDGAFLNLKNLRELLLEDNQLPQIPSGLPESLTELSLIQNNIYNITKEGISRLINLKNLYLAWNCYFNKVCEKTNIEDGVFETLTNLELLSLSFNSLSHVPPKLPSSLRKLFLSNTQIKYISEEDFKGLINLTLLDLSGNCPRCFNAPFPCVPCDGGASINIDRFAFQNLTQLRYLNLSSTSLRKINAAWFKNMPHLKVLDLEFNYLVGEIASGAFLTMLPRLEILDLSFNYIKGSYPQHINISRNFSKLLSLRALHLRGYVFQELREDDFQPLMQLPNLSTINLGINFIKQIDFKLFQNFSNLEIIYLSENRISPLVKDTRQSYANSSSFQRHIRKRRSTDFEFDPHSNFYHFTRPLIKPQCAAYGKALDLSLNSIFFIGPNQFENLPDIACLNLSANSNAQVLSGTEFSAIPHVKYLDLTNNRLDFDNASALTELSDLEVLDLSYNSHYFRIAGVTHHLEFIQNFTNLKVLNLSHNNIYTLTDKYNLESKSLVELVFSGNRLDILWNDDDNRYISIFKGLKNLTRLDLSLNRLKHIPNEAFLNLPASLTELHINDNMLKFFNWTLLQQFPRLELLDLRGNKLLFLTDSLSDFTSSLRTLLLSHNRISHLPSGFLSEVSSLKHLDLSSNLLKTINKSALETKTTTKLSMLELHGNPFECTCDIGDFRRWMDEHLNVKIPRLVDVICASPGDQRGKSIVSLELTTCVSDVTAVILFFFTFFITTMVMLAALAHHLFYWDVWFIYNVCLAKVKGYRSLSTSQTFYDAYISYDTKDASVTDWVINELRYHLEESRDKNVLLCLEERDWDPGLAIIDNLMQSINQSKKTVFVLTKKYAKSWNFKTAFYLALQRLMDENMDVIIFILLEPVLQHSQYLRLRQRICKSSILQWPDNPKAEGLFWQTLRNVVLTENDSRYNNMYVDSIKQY
The assay is described as follows: TLR8 inhibition reporter assay (HEK-Blue SEAP reporter). Conditions: HEK-Blue cells overexpressing human TLR8; R848 15.9 μM; 22 hour incubation. The essentials: as §1

The target in another assay is T3, human TLR9 (Homo sapiens, UniProt Q9NR96).
T3 construct: host or cells: HEK-Blue cells
T3 sequence (Q9NR96 26-1032): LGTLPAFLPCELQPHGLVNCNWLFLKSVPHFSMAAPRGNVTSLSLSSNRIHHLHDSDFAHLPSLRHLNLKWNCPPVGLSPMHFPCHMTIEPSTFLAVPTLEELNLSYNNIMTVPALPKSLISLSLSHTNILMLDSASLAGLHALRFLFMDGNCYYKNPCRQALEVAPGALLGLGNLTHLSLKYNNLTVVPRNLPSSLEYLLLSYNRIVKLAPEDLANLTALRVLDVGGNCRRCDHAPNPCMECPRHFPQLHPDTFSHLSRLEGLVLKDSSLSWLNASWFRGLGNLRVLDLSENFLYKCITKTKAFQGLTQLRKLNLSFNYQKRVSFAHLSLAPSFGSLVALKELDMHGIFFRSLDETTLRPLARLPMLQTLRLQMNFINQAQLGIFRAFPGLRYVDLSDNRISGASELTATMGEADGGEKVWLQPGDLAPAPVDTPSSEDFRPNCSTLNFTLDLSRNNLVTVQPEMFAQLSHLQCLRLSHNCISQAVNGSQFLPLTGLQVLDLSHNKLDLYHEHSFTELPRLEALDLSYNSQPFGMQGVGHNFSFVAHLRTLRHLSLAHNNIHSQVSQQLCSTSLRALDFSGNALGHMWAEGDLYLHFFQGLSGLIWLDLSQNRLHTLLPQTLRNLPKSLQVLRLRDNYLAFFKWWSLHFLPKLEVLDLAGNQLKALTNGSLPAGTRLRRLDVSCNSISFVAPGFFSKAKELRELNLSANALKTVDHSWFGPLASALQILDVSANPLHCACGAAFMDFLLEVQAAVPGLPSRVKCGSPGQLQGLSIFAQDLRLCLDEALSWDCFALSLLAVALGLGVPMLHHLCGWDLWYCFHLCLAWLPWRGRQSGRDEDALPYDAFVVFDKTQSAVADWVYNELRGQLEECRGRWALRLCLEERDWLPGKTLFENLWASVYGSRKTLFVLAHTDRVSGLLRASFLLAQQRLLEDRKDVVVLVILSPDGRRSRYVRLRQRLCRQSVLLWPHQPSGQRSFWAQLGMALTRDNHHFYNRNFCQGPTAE
The assay is described as follows: TLR9 inhibition reporter assay (HEK-Blue SEAP reporter). As to conditions: HEK-Blue cells overexpressing human TLR9; ODN2006 5 nM; 22 hour incubation. The method in brief: as §1

Regarding `COc1ccc(-c2[nH]c3ccc(N4CCC(N5CCN(C(C)C)CC5)CC4)cc3c2C(C)C)cc1OC` [Example 85, 2-(3,4-dimethoxyphenyl)-3-isopropyl-5-(4-(4-isopropylpiperazin-1-yl)piperidin-1-yl)-1H-indole], the IC50 (in general, the point on the concentration scale where inhibition reaches its midpoint) on human TLR7 stood at 23 nM; at human TLR8, 16 nM; at human TLR9 it was 637 nM.

Consider `COc1ccc(-c2[nH]c3ccc(N4CCC(NCCN5CCOCC5)CC4)cc3c2C(C)C)cc1OC` [Example 86, 1-(2-(3,4-dimethoxyphenyl)-3-isopropyl-1H-indol-5-yl)-N-(2-morpholinoethyl)piperidin-4-amine], for which the IC50 on human TLR7 turned out to be 41 nM; against human TLR8, 4.8 nM; at human TLR9 it was 2800 nM.

`COc1ccc(-c2[nH]c3ccc(N4CCC(NC5CCN(C(C)=O)CC5)CC4)cc3c2C(C)C)cc1OC` [Example 89, 1-(4-((1-(2-(3,4-dimethoxyphenyl)-3-isopropyl-1H-indol-5-yl)piperidin-4-yl)amino)piperidin-1-yl) ethan-1-one]: the IC50 against human TLR7 is 31 nM; against human TLR8, 5 nM; on human TLR9, 2000 nM.

On to `COc1ccc(-c2[nH]c3ccc(N4CCC(N5CCN(C(C)(C)C)CC5)CC4)cc3c2C(C)C)cc1OC` [Example 90, 5-(4-(4-(tert-butyl)piperazin-1-yl)piperidin-1-yl)-2-(3,4-dimethoxyphenyl)-3-isopropyl-1H-indole], for which the IC50 came out at 37 nM against human TLR7, 19 nM at human TLR8 and 809 nM on human TLR9.

In the case of `COc1ccc(-c2[nH]c3ccc(N4CCC(N5CCN(CC(C)C)CC5)CC4)cc3c2C(C)C)cc1OC` [Example 91, 2-(3,4-dimethoxyphenyl)-5-(4-(4-isobutylpiperazin-1-yl)piperidin-1-yl)-3-isopropyl-1H-indole], the figures for the IC50 against human TLR7, against human TLR8 and against human TLR9 were 116 nM, 92 nM and 1940 nM, respectively.

Consider `COCCN1CCN(C2CCN(c3ccc4[nH]c(-c5ccc(OC)c(OC)c5)c(C(C)C)c4c3)CC2)CC1` [Example 92, 2-(3,4-dimethoxyphenyl)-3-isopropyl-5-(4-(4-(2-methoxyethyl)piperazin-1-yl)piperidin-1-yl)-1H-indole], for which the results for the half-maximal inhibitory concentration (IC50) against human TLR7, on human TLR8 and on human TLR9 were 19 nM, 12 nM and 1750 nM, respectively.

Regarding `COc1ccc(-c2[nH]c3ccc(N4CCC(N5CCN(c6ccncc6)CC5)CC4)cc3c2C(C)C)cc1OC` [Example 94, 2-(3,4-dimethoxyphenyl)-3-isopropyl-5-(4-(4-(pyridin-4-yl)piperazin-1-yl)piperidin-1-yl)-1H-indole], the IC50 against human TLR7 worked out at 33 nM; against human TLR8 it was 3.5 nM; at human TLR9 it was 816 nM.

With `COc1ccc(-c2[nH]c3ccc(N4CCC(NC5CC(C)(C)N(C)C(C)(C)C5)CC4)cc3c2C(C)C)cc1OC` [Example 95, N-(1-(2-(3,4-dimethoxyphenyl)-3-isopropyl-1H-indol-5-yl)piperidin-4-yl)-1,2,2,6,6-pentamethylpiperidin-4-amine], the IC50 against human TLR7 came to 39 nM; on human TLR8 it was 7.8 nM; at human TLR9 it was 533 nM.

For the compound `COc1ccc(-c2[nH]c3ccc(N4CCC(C5CCN(Cc6cccn6C)CC5)CC4)cc3c2C(C)C)cc1OC` [Example 96, 2-(3,4-dimethoxyphenyl)-3-isopropyl-5-(1′-((1-methyl-1H-pyrrol-2-yl)methyl)-[4,4′-bipiperidin]-1-yl)-1H-indole], the IC50 came to 436 nM at human TLR7, 1050 nM at human TLR8 and 2840 nM against human TLR9.

As to `COc1ccc(-c2[nH]c3ccc(N4CCC(C5CCN(CCC(F)(F)F)CC5)CC4)cc3c2C(C)C)cc1OC` [Example 97, 2-(3,4-dimethoxyphenyl)-3-isopropyl-5-(1′-(3,3,3-trifluoropropyl)-[4,4′-bipiperidin]-1-yl)-1H-indole], the IC50 at human TLR7 was found to be 862 nM; against human TLR8, 1910 nM; on human TLR9, 6610 nM.

Consider `COc1ccc(-c2[nH]c3ccc(N4CCC(N5CCN(C6CCN(C)CC6)CC5)CC4)cc3c2C(C)C)cc1OC` [Example 99, 2-(3,4-dimethoxyphenyl)-3-isopropyl-5-(4-(4-(1-methylpiperidin-4-yl)piperazin-1-yl)piperidin-1-yl)-1H-indole], for which the IC50 against human TLR7 is 11 nM; against human TLR8 it was 62 nM; against human TLR9 it was 538 nM.

Consider `COc1ccc(-c2[nH]c3ccc(N4CCC(N5CCN(CCCN6CCCC6)CC5)CC4)cc3c2C(C)C)cc1OC` [Example 102, 2-(3,4-dimethoxyphenyl)-3-isopropyl-5-(4-(4-(3-(pyrrolidin-1-yl)propyl)piperazin-1-yl)piperidin-1-yl)-1H-indole], for which the IC50 at human TLR7 is 16 nM; at human TLR8 it was 28 nM; against human TLR9, 413 nM.

Turning to `COc1ccc(-c2[nH]c3ccc(NC4CC(C)(C)N(C)C(C)(C)C4)cc3c2C(C)C)cc1OC` [Example 103, 2-(3,4-dimethoxyphenyl)-3-isopropyl-N-(1,2,2,6,6-pentamethylpiperidin-4-yl)-1H-indol-5-amine], the values for the IC50 at human TLR7, against human TLR8 and on human TLR9 were 1120 nM, 8.2 nM and 2670 nM, respectively.

The record behind these values is patent US11306092B2, “Amino indole compounds useful as TLR inhibitors” (BRISTOL-MYERS SQUIBB COMPANY, priority 2017, dated 2022).
